Laboratory results: publication PMC5529566, “The cryo-EM structure of gastric H^+,K^+-ATPase with bound BYK99, a high-affinity member of K^+-competitive, imidazo[1,2-a]pyridine inhibitors” (Scientific Reports, 2017)

How the values were obtained:
H^+,K^+-ATPase I126A = molecular target: T1, H^+,K^+-ATPase I126A (Sus scrofa, UniProt P19156, I127A); test: ATPase assay, I126A mutant; assay type: biochemical, pig
T1 construct: made in house; host or cells: HEK293S GnT1- cells (BacMam baculovirus transduction); permeabilised membrane fractions

H^+,K^+-ATPase I126F = molecular target: T2, H^+,K^+-ATPase I126F (Sus scrofa, UniProt P19156, I127F); test: ATPase assay, I126F mutant; assay type: biochemical, pig
T2 construct: made in house; host or cells: HEK293S GnT1- cells (BacMam baculovirus transduction); permeabilised membrane fractions

H^+,K^+-ATPase D136A = H^+,K^+-ATPase D136A (Sus scrofa, UniProt P19156, D137A); test: ATPase assay, D136A mutant
H^+,K^+-ATPase D136L = H^+,K^+-ATPase D136L (Sus scrofa, UniProt P19156, D137L); test: ATPase assay, D136L mutant
H^+,K^+-ATPase D136F = H^+,K^+-ATPase D136F (Sus scrofa, UniProt P19156, D137F); test: ATPase assay, D136F mutant
H^+,K^+-ATPase D137A = H^+,K^+-ATPase D137A (Sus scrofa, UniProt P19156, D138A); test: ATPase assay, D137A mutant
H^+,K^+-ATPase D137I = H^+,K^+-ATPase D137I (Sus scrofa, UniProt P19156, D138I); test: ATPase assay, D137I mutant
H^+,K^+-ATPase N138A = H^+,K^+-ATPase N138A (Sus scrofa, UniProt P19156, N139A); test: ATPase assay, N138A mutant
H^+,K^+-ATPase N138I = H^+,K^+-ATPase N138I (Sus scrofa, UniProt P19156, N139I); test: ATPase assay, N138I mutant
H^+,K^+-ATPase N138F = H^+,K^+-ATPase N138F (Sus scrofa, UniProt P19156, N139F); test: ATPase assay, N138F mutant
H^+,K^+-ATPase Y140A = H^+,K^+-ATPase Y140A (Sus scrofa, UniProt P19156, Y141A); test: ATPase assay, Y140A mutant
H^+,K^+-ATPase Y140I = H^+,K^+-ATPase Y140I (Sus scrofa, UniProt P19156, Y141I); test: ATPase assay, Y140I mutant
H^+,K^+-ATPase A125S = H^+,K^+-ATPase A125S (Sus scrofa, UniProt P19156, A126S); test: ATPase assay, A125S mutant
H^+,K^+-ATPase Q127A = H^+,K^+-ATPase Q127A (Sus scrofa, UniProt P19156, Q128A); test: ATPase assay, Q127A mutant
H^+,K^+-ATPase Q127F = H^+,K^+-ATPase Q127F (Sus scrofa, UniProt P19156, Q128F); test: ATPase assay, Q127F mutant
H^+,K^+-ATPase A335V = H^+,K^+-ATPase A335V (Sus scrofa, UniProt P19156, A336V); test: ATPase assay, A335V mutant
H^+,K^+-ATPase Y799A = H^+,K^+-ATPase Y799A (Sus scrofa, UniProt P19156, Y800A); test: ATPase assay, Y799A mutant
H^+,K^+-ATPase V331A = H^+,K^+-ATPase V331A (Sus scrofa, UniProt P19156, V332A); test: ATPase assay, V331A mutant
H^+,K^+-ATPase M334F = H^+,K^+-ATPase M334F (Sus scrofa, UniProt P19156, M335F); test: ATPase assay, M334F mutant
H^+,K^+-ATPase A339S = H^+,K^+-ATPase A339S (Sus scrofa, UniProt P19156, A340S); test: ATPase assay, A339S mutant
H^+,K^+-ATPase = H^+,K^+-ATPase (Sus scrofa, UniProt P19156); test: Dose-dependent inhibition of H^+,K^+-ATPase activity in the presence of 10 mM KCl
Description: Reactions were initiated by incubating at 37 °C using a thermal cycler, and maintained for 1 to 5 h (depending on the activity). Reactions were terminated by withdrawing 40 μL from the 80 μL reactant, and mixing with 80 μL of stop solution comprising 6% ascorbic acid and 2% ammonium molybdate in 1 N HCl, followed by the addition of 120 μL of 2% sodium arsenate, 2% sodium citrate, and 2% acetic acid. The amount of released inorganic phosphate was determined colorimetrically[39] from absorbance at 850 nm by the microplate reader (TECAN).

Sequence of H^+,K^+-ATPase A125S (P19156 whole entry A126S): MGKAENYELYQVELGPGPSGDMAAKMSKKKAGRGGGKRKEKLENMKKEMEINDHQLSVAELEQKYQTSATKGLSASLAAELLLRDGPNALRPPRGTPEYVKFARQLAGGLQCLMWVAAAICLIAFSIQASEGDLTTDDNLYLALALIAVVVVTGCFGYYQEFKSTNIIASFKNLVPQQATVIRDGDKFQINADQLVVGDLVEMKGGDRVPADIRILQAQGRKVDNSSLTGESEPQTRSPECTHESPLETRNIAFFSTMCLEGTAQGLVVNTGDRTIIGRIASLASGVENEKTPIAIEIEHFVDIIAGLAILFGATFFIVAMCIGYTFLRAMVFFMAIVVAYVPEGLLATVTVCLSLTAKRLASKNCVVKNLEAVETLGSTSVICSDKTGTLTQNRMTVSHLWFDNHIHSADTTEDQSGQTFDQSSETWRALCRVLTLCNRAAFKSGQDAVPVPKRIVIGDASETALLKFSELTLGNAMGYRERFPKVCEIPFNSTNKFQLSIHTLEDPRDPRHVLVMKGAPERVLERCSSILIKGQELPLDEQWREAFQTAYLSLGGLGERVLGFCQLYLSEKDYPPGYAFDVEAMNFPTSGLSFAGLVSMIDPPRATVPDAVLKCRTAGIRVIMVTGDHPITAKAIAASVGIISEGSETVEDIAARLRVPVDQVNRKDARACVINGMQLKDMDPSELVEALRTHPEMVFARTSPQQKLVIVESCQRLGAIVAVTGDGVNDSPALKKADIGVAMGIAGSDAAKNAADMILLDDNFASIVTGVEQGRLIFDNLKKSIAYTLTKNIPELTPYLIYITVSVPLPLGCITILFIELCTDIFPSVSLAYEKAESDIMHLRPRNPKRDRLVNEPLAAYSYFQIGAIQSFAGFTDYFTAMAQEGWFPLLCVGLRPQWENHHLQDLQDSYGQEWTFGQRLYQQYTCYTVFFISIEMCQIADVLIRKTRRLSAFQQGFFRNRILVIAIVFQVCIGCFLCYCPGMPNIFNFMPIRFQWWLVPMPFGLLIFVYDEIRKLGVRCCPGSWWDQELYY
Sequence of H^+,K^+-ATPase A125S (P18434 whole entry partner): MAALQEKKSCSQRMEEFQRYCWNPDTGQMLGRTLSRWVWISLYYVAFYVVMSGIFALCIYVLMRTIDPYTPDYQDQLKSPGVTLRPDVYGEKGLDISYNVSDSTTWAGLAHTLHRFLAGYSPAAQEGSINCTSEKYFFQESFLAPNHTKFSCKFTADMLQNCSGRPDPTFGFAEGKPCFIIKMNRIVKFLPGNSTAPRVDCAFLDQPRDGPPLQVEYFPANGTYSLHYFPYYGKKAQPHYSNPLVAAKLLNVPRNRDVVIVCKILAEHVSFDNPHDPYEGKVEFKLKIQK
Sequence of H^+,K^+-ATPase Q127A (P19156 whole entry Q128A): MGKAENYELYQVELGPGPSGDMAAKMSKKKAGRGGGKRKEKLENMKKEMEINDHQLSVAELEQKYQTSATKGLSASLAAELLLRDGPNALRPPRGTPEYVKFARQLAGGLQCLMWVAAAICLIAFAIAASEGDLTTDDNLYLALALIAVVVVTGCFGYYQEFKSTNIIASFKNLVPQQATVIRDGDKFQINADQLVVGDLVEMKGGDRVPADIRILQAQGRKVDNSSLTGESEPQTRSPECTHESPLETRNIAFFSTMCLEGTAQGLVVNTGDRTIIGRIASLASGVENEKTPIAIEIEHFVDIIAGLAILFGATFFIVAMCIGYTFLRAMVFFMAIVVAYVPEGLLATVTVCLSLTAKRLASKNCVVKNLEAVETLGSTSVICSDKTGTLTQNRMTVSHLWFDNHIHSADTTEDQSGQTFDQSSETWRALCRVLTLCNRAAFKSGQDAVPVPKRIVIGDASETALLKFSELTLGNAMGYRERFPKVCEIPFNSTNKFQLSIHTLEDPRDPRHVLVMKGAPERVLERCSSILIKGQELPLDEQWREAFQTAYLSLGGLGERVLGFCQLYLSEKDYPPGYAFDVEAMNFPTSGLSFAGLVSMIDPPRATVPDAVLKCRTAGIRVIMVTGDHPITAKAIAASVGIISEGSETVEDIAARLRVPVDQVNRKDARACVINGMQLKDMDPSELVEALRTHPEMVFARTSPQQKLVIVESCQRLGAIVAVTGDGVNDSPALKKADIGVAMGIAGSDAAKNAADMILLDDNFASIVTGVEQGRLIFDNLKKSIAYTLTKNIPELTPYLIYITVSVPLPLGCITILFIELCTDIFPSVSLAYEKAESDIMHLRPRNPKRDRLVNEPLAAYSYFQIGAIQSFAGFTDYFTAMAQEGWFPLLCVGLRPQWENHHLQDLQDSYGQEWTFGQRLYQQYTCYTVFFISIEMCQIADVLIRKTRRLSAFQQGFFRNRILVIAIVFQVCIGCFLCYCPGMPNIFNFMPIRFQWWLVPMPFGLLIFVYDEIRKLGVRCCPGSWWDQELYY
Sequence of H^+,K^+-ATPase Q127A (P18434 whole entry partner): as the sequence (P18434 whole entry partner) above
Sequence of H^+,K^+-ATPase Q127F (P19156 whole entry Q128F): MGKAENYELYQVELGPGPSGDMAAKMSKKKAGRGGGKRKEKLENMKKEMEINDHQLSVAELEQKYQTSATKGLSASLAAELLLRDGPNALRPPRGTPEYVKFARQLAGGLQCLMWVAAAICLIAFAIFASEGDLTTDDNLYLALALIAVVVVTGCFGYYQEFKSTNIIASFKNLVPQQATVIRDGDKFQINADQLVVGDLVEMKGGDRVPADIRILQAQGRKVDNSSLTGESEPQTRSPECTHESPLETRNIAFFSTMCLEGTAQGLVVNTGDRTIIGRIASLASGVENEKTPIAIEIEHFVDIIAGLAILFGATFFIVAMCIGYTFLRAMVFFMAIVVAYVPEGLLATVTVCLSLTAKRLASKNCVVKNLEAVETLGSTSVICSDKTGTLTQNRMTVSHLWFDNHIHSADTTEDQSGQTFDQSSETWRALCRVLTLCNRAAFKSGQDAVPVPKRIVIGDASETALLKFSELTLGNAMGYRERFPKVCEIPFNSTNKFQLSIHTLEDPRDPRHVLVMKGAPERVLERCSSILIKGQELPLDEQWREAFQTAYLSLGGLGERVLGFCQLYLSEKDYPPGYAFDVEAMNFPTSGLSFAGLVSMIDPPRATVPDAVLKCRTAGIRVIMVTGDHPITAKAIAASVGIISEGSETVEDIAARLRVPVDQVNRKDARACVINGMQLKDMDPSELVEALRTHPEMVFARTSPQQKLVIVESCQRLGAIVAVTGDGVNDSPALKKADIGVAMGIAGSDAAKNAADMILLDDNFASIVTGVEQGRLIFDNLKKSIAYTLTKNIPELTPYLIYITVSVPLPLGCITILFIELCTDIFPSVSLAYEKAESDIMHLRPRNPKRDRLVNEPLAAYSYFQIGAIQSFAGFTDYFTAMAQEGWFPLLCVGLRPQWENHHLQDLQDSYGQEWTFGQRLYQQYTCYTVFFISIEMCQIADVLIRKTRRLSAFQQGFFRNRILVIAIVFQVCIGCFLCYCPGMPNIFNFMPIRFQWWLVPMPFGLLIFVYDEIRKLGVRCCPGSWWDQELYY
Sequence of H^+,K^+-ATPase Q127F (P18434 whole entry partner): as the sequence (P18434 whole entry partner) above
Sequence of H^+,K^+-ATPase M334F (P19156 whole entry M335F): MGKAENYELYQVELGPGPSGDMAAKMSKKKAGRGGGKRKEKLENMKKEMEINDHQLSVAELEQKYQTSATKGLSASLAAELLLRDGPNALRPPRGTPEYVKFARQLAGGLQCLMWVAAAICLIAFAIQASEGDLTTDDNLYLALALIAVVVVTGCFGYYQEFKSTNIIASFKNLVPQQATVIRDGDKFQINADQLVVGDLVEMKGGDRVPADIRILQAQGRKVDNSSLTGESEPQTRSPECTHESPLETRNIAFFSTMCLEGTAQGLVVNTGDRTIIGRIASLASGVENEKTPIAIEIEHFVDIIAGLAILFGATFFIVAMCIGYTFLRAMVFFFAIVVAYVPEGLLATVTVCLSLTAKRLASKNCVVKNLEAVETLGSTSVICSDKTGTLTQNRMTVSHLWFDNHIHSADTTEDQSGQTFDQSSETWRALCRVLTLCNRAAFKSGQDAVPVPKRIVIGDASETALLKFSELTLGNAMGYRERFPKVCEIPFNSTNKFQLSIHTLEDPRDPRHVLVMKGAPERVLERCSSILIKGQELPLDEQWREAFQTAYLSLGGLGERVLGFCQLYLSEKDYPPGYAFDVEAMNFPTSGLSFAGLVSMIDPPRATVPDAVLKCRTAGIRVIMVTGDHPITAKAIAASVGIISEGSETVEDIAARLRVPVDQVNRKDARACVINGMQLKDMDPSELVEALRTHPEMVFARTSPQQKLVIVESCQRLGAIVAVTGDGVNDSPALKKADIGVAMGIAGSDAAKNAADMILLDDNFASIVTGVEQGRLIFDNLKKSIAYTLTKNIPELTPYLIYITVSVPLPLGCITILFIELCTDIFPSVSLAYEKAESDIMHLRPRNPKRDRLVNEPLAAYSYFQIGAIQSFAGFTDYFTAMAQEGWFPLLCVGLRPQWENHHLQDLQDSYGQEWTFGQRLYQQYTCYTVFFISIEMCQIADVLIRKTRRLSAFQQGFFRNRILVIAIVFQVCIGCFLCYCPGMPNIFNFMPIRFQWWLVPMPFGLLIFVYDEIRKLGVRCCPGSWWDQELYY
Sequence of H^+,K^+-ATPase M334F (P18434 whole entry partner): as the sequence (P18434 whole entry partner) above

- -fold increase in K i compared with wild-type (H^+,K^+-ATPase I126A; I126A): 19 fold
- Ki (H^+,K^+-ATPase I126A; I126A (M1), high H^+-ATPase activity, K i determined by K m/V max plot): 110 ± 50 nM
- -fold increase in K i compared with wild-type (H^+,K^+-ATPase I126F; I126F): 4.1 fold
- Ki (H^+,K^+-ATPase I126F; I126F (M1), high H^+-ATPase activity, K i determined by K m/V max plot): 24 ± 15 nM
- Ki (H^+,K^+-ATPase D136A): 10 ± 1 nM
- -fold increase in K i compared with wild-type (H^+,K^+-ATPase D136A; D136A): 1.7 fold
- Ki (H^+,K^+-ATPase D136L): 5.3 ± 0.5 nM
- -fold increase in K i compared with wild-type (H^+,K^+-ATPase D136L; D136L): 0.9 fold
- Ki (H^+,K^+-ATPase D136F): 5.9 ± 0.7 nM
- -fold increase in K i compared with wild-type (H^+,K^+-ATPase D136F; D136F): 1.0 fold
- Ki (H^+,K^+-ATPase D137A): 81 ± 13 nM
- -fold increase in K i compared with wild-type (H^+,K^+-ATPase D137A; D137A): 14 fold
- Ki (H^+,K^+-ATPase D137I): 62 ± 15 nM
- -fold increase in K i compared with wild-type (H^+,K^+-ATPase D137I; D137I): 11 fold
- Ki (H^+,K^+-ATPase N138A): 1.4 ± 0.3 nM
- -fold increase in K i compared with wild-type (H^+,K^+-ATPase N138A; N138A): 0.2 fold
- Ki (H^+,K^+-ATPase N138I): 34 ± 8 nM
- -fold increase in K i compared with wild-type (H^+,K^+-ATPase N138I; N138I): 5.9 fold
- Ki (H^+,K^+-ATPase N138F): 7700 ± 1200 nM
- -fold increase in K i compared with wild-type (H^+,K^+-ATPase N138F; N138F): 1300 fold
- Ki (H^+,K^+-ATPase Y140A): 25 ± 3 nM
- -fold increase in K i compared with wild-type (H^+,K^+-ATPase Y140A; Y140A): 4.3 fold
- Ki (H^+,K^+-ATPase Y140I): 4.3 ± 0.5 nM
- -fold increase in K i compared with wild-type (H^+,K^+-ATPase Y140I; Y140I): 0.7 fold
- Ki (H^+,K^+-ATPase A125S): 27 ± 2 nM
- -fold increase in K i compared with wild-type (H^+,K^+-ATPase A125S; A125S): 4.6 fold
- Ki (H^+,K^+-ATPase Q127A): 19 ± 1 nM
- -fold increase in K i compared with wild-type (H^+,K^+-ATPase Q127A; Q127A): 3.3 fold
- Ki (H^+,K^+-ATPase Q127F): 41 ± 7 nM
- -fold increase in K i compared with wild-type (H^+,K^+-ATPase Q127F; Q127F): 7.1 fold
- Ki (H^+,K^+-ATPase A335V): > 1000 nM
- -fold increase in K i compared with wild-type (H^+,K^+-ATPase A335V; A335V): > 170 fold
- Ki (H^+,K^+-ATPase Y799A): > 1000 nM
- -fold increase in K i compared with wild-type (H^+,K^+-ATPase Y799A; Y799A): > 170 fold
- Ki (H^+,K^+-ATPase V331A): 47 ± 3 nM
- -fold increase in K i compared with wild-type (H^+,K^+-ATPase V331A; V331A): 8.1 fold
- Ki (H^+,K^+-ATPase M334F): 16 ± 4 nM
- -fold increase in K i compared with wild-type (H^+,K^+-ATPase M334F; M334F): 2.8 fold
- Ki (H^+,K^+-ATPase A339S): 21 ± 1 nM
- -fold increase in K i compared with wild-type (H^+,K^+-ATPase A339S; A339S): 3.6 fold
- IC50 (H^+,K^+-ATPase): 77 nM
Compound: Cc1nc2c3c(ccn2c1C)[C@@H](O)[C@H](O)[C@@H](c1ccccc1)N3 [BYK99]
